Experimental findings from patent publication US9512142B2, “Tricyclic triazolic compounds” (LABORATORIOS DEL DR. ESTEVE S.A., priority 2013, dated 2016) are described below.

Read-outs that look alike come from different tables or passages of the source.

One data set addresses T1, human sigma 1 receptor (Homo sapiens, UniProt Q99720).
T1 construct: expressed in transfected cells; host or cells: HEK-293
In words: Human sigma 1 receptor radioligand assay ([3H](+)-pentazocine, transfected HEK-293 membranes). Type of data set: binding. Here is the method:
Human Sigma 1 Receptor Radioligand Assay
The assay was carried out with 7 μg of membrane suspension, 5 nM of [^3H](+)-pentazocine in either absence or presence of either buffer or 10 μM Haloperidol for total and non-specific binding, respectively. Binding buffer contained Tris-HCl 50 mM at pH 8. Plates were incubated at 37° C. for 120 minutes. After the incubation period, the reaction mix was then transferred to MultiScreen HTS, FC plates (Millipore), filtered and plates were washed 3 times with ice-cold 10 mM Tris-HCL (pH7.4). Filters were dried and counted at approximately 40% efficiency in a MicroBeta scintillation counter (Perkin-Elmer) using EcoScint liquid scintillation cocktail.

Another data set can be described thus: Kinetic solubility. The conditions noted are these: kinetic from dmso stock, buffered aqueous solution at pH=7.4, 10 μL of 10 mM DMSO solution in 1 mL, stirred 4 hours, supernatant by liquid chromatography, read-out: Kin. Solub. It counts as physicochemical. On the procedure: To a buffered aqueous solution at pH=7.4 (1 mL), a 10 mM DMSO solution of the test compound (10 μL) was added and the mixture stirred for 4 hours. After centrifugation, the compound concentration in the supernatant was determined by liquid chromatography by fitting in a calibration curve of the compound.

[1] abbreviates: 5 nM [3H](+)-pentazocine, transfected HEK-293 membranes, 37° C., 120 minutes, read-out: Ki.
[2] abbreviates: buffered aqueous solution, pH 7.4, aqueous buffer.

T1 sequence (Q99720 whole entry): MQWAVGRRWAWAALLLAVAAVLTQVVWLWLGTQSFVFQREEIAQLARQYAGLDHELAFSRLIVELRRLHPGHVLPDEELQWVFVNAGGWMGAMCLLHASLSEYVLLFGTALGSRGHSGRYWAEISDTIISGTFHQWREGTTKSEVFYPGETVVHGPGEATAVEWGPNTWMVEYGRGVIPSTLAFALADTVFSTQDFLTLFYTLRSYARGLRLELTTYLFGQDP

For `Cl.Fc1ccccc1-c1nnn2c1CO[C@@H]1CN(Cc3ccncc3)C[C@H]12` (racemic) [Example 2, (5aRS,8aRS)-3-(2-fluorophenyl)-7-(pyridin-4-ylmethyl)-4,5a,6,7,8,8a-hexahydropyrrolo[3,4-b][1,2,3]triazolo[1,5-d][1,4]oxazine hydrochloride], the Ki (usually the equilibrium dissociation constant of an inhibitor or competing ligand from its target) on human sigma 1 receptor (setting [1]) was 315 nM. The solubility at 4 h in “Kinetic solubility” (aqueous buffer) was > 10 µM.

With `Cl.Fc1ccc(-c2nnn3c2CO[C@@H]2CN(Cc4ccoc4)C[C@H]23)cc1` (racemic) [Example 21, (5aRS,8aRS)-3-(4-fluorophenyl)-7-(furan-3-ylmethyl)-4,5a,6,7,8,8a-hexahydropyrrolo[3,4-b][1,2,3]triazolo[1,5-d][1,4]oxazine hydrochloride], at human sigma 1 receptor (setting [1]), the Ki came to 16.6 nM. Further, in the data set “Kinetic solubility” (aqueous buffer), the solubility at 4 h is > 10 µM.

In the case of `Cl.Fc1ccc(CN2C[C@@H]3[C@@H](C2)OCc2c(-c4ccncc4)nnn23)cc1` (racemic) [Example 26, (5aRS,8aRS)-7-(4-fluorobenzyl)-3-(pyridin-4-yl)-4,5a,6,7,8,8a-hexahydropyrrolo[3,4-b][1,2,3]triazolo[1,5-d][1,4]oxazine hydrochloride], on human sigma 1 receptor (setting [1]), the Ki was found to be 133 nM. The solubility at 4 h in “Kinetic solubility” (aqueous buffer) is > 10 µM.

With `Cl.Fc1ccc(-c2nnn3c2CO[C@H]2CN(C4CCOCC4)C[C@@H]23)cc1` [Example 4, (5aS,8aS)-3-(4-fluorophenyl)-7-(tetrahydro-2H-pyran-4-yl)-4,5a,6,7,8,8a-hexahydropyrrolo[3,4-b][1,2,3]triazolo[1,5-d][1,4]oxazine hydrochloride], the inhibition constant (Ki) at human sigma 1 receptor (setting [1]) turned out to be 23 nM. Further, the solubility at 4 h in “Kinetic solubility” (aqueous buffer) is > 10 µM.

`COc1ccc(-c2nnn3c2CO[C@H]2CN(C4CCOCC4)C[C@@H]23)cn1.Cl` [Example 8, (5aS,8aS)-3-(6-methoxypyridin-3-yl)-7-(tetrahydro-2H-pyran-4-yl)-4,5a,6,7,8,8a-hexahydropyrrolo[3,4-b][1,2,3]triazolo[1,5-d][1,4]oxazine hydrochloride]: the inhibition constant Ki at human sigma 1 receptor (setting [1]) turned out to be 227 nM. Moreover, the solubility at 4 h in the data set “Kinetic solubility” (aqueous buffer) was > 10 µM.

Consider `Cl.Fc1ccc(CN2C[C@@H]3[C@@H](C2)OCc2c(-c4ccccc4F)nnn23)cn1` [Example 11, (5aR,8aR)-3-(2-fluorophenyl)-7-((6-fluoropyridin-3-yl)methyl)-4,5a,6,7,8,8a-hexahydropyrrolo[3,4-b][1,2,3]triazolo[1,5-d][1,4]oxazine hydrochloride], for which the inhibition constant (Ki) on human sigma 1 receptor (setting [1]) came out at 241 nM. The solubility at 4 h in the data set “Kinetic solubility” (aqueous buffer) is > 10 µM.

As for `Cl.Fc1ccccc1-c1nnn2c1CO[C@H]1CN(C[C@H]3CCOC3)C[C@@H]12` [Example 15, (5aS,8aS)-3-(2-fluorophenyl)-7-(((R)-tetrahydrofuran-3-yl)methyl)-4,5a,6,7,8,8a-hexahydropyrrolo[3,4-b][1,2,3]triazolo[1,5-d][1,4]oxazine hydrochloride], the Ki at human sigma 1 receptor (setting [1]) came to 29.7 nM. In the data set “Kinetic solubility” (setting [2]), the solubility at 4 h was > 10 µM.

`Cl.Fc1ccccc1-c1nnn2c1CO[C@@H]1CN(C[C@@H]3CCOC3)C[C@H]12` [Example 16, (5aR,8aR)-3-(2-fluorophenyl)-7-(((S)-tetrahydrofuran-3-yl)methyl)-4,5a,6,7,8,8a-hexahydropyrrolo[3,4-b][1,2,3]triazolo[1,5-d][1,4]oxazine hydrochloride]: on human sigma 1 receptor (setting [1]), the inhibitory constant (Ki) came to 97.6 nM. In addition, the solubility at 4 h in the data set “Kinetic solubility” (setting [2]) was > 10 µM.

As for `Cl.Fc1ccccc1-c1nnn2c1CO[C@H]1CN(C[C@@H]3CCOC3)C[C@@H]12` [Example 17, (5aS,8aS)-3-(2-fluorophenyl)-7-(((S)-tetrahydrofuran-3-yl)methyl)-4,5a,6,7,8,8a-hexahydropyrrolo[3,4-b][1,2,3]triazolo[1,5-d][1,4]oxazine hydrochloride], the inhibitory constant (Ki) on human sigma 1 receptor (setting [1]) was found to be 49.2 nM. For the same compound, the solubility at 4 h in “Kinetic solubility” (setting [2]) was > 10 µM.

Regarding `Cl.Fc1ccccc1-c1nnn2c1CO[C@@H]1CN(C[C@H]3CCOC3)C[C@H]12` [Example 18, (5aR,8aR)-3-(2-fluorophenyl)-7-(((R)-tetrahydrofuran-3-yl)methyl)-4,5a,6,7,8,8a-hexahydropyrrolo[3,4-b][1,2,3]triazolo[1,5-d][1,4]oxazine hydrochloride], at human sigma 1 receptor (setting [1]), the inhibition constant Ki was 171 nM. The solubility at 4 h in the data set “Kinetic solubility” (setting [2]) is > 10 µM.

For the compound `CCOc1ccc(CN2C[C@@H]3[C@@H](C2)OCc2c(-c4ccccc4F)nnn23)cn1.Cl` [Example 19, (5aR,8aR)-7-((6-ethoxypyridin-3-yl)methyl)-3-(2-fluorophenyl)-4,5a,6,7,8,8a-hexahydropyrrolo[3,4-b][1,2,3]triazolo[1,5-d][1,4]oxazine hydrochloride], the Ki at human sigma 1 receptor (setting [1]) amounted to 83.3 nM. Moreover, in the data set “Kinetic solubility” (setting [2]), the solubility at 4 h is > 10 µM.

In the case of `Cc1cc(CN2C[C@@H]3OCc4c(-c5ccc(F)cc5F)nnn4[C@H]3C2)c(C)o1.Cl` [Example 22, (5aS,8aS)-3-(2,4-difluorophenyl)-7-((2,5-dimethylfuran-3-yl)methyl)-4,5a,6,7,8,8a-hexahydropyrrolo[3,4-b][1,2,3]triazolo[1,5-d][1,4]oxazine hydrochloride], the Ki on human sigma 1 receptor (setting [1]) came out at 119 nM. The solubility at 4 h in “Kinetic solubility” (setting [2]) is > 10 µM.

As for `Cc1cc(CN2C[C@@H]3[C@@H](C2)OCc2c(-c4ccc(F)cc4F)nnn23)c(C)o1.Cl` [Example 23, (5aR,8aR)-3-(2,4-difluorophenyl)-7-((2,5-dimethylfuran-3-yl)methyl)-4,5a,6,7,8,8a-hexahydropyrrolo[3,4-b][1,2,3]triazolo[1,5-d][1,4]oxazine hydrochloride], at human sigma 1 receptor (setting [1]), the Ki worked out at 41.9 nM. In addition, the solubility at 4 h in “Kinetic solubility” (setting [2]) was > 10 µM.

For `Cl.Fc1ccc(-c2nnn3c2CO[C@H]2CN(C4CCOCC4)C[C@@H]23)c(F)c1` [Example 27, (5aS,8aS)-3-(2,4-difluorophenyl)-7-(tetrahydro-2H-pyran-4-yl)-4,5a,6,7,8,8a-hexahydropyrrolo[3,4-b][1,2,3]triazolo[1,5-d][1,4]oxazine hydrochloride], the Ki on human sigma 1 receptor (setting [1]) was 20.4 nM. The solubility at 4 h in “Kinetic solubility” (setting [2]) is > 10 µM.

With `Cl.c1ccc(-c2nnn3c2CO[C@H]2CN(C4CCOCC4)C[C@@H]23)nc1` [Example 31, (5aS,8aS)-3-(pyridin-2-yl)-7-(tetrahydro-2H-pyran-4-yl)-4,5a,6,7,8,8a-hexahydropyrrolo[3,4-b][1,2,3]triazolo[1,5-d][1,4]oxazine hydrochloride], the Ki at human sigma 1 receptor was 241 nM. Further, the solubility at 4 h in “Kinetic solubility” (aqueous buffer) was > 10 µM.

Regarding `Cl.c1ccc(CN2C[C@@H]3[C@@H](C2)OCc2c(-c4ccccn4)nnn23)cc1` [Example 32, (5aR,8aR)-7-benzyl-3-(pyridin-2-yl)-4,5a,6,7,8,8a-hexahydropyrrolo[3,4-b][1,2,3]triazolo[1,5-d][1,4]oxazine hydrochloride], the Ki on human sigma 1 receptor (setting [1]) stood at 37 nM. The solubility at 4 h in the data set “Kinetic solubility” (setting [2]) was > 10 µM.

Consider `Cl.c1ccc(CN2C[C@@H]3OCc4c(-c5ccccn5)nnn4[C@H]3C2)cc1` [Example 33, (5aS,8aS)-7-benzyl-3-(pyridin-2-yl)-4,5a,6,7,8,8a-hexahydropyrrolo[3,4-b][1,2,3]triazolo[1,5-d][1,4]oxazine hydrochloride], for which, at human sigma 1 receptor (setting [1]), the inhibition constant (Ki) came out at 225 nM. Besides, in “Kinetic solubility” (setting [2]), the solubility at 4 h is > 10 µM.

With `Cl.Fc1ccc(-c2nnn3c2CO[C@@H]2CN(Cc4ccc(F)nc4)C[C@H]23)c(Cl)c1` [Example 39, (5aR,8aR)-3-(2-chloro-4-fluorophenyl)-7-((6-fluoropyridin-3-yl)methyl)-4,5a,6,7,8,8a-hexahydropyrrolo[3,4-b][1,2,3]triazolo[1,5-d][1,4]oxazine hydrochloride], the Ki on human sigma 1 receptor (setting [1]) amounted to 166 nM. Further, the solubility at 4 h in the data set “Kinetic solubility” (setting [2]) is > 10 µM.
